System: MV-4-11 cells
Assay: Cell Viability Assay in MV-4-11 Cells
Type: cell-based
Settings: Homo sapiens, MV4-11, 72 h
Summary of the method: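 Luminescent ATP read-out (CellTiter-Glo) after 72 h compound treatment of MV-4-11 leukaemia cells (7,000 per well, IMDM plus 10% FBS). Values expressed relative to DMSO control and derived by four-parameter non-linear regression.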

Row | SMILES | IC50 [nM]
1 | O=C(c1ccc(-n2nnc3cccnc32)cc1F)N(c1nccc2cc(C#CCO)ccc12)[C@@H]1CCCNC1 [Example 398, (R)-4-(3H-[1,2,3]triazolo[4,5-b]pyridin-3-yl)-2-fluoro-N-(6-(3-hydroxyprop-1-yn-1-yl)isoquinolin-1-yl)-N-(piperidin-3-yl)benzamide] | 71

Same assay, conditions: Homo sapiens, MV4-11, 72 h, MV-4-11 cells, 72 h, Cell-Titer Glo; read-out: IC50

Row | IC50 [nM] | SMILES
2 | 260 | CCc1nnc(-c2ccc(C(=O)N(c3nccc4cc(Cl)cc(C)c34)[C@@H]3CCCNC3)nc2)s1 [Example 730, (R)—N-(6-chloro-8-methylisoquinolin-1-yl)-5-(5-ethyl-1,3,4-thiadiazol-2-yl)-N-(piperidin-3-yl)picolinamide]
3 | 16 | Cc1cc(-c2cccnc2)cc2ccnc(N(C(=O)c3ccc(-n4nnc5cccnc54)cc3F)[C@@H]3CCCNC3)c12 [Example 421, (R)-4-(3H-[1,2,3]triazolo[4,5-b]pyridin-3-yl)-2-fluoro-N-(8-methyl-6-(pyridin-3-yl)isoquinolin-1-yl)-N-(piperidin-3-yl)benzamide]
4 | 75 | Cc1csc2ccnc(N(C(=O)c3ccc(-c4cn(C)nn4)cc3F)[C@@H]3CCCNC3)c12 [Example 841, (R)-2-fluoro-4-(1-methyl-1H-1,2,3-triazol-4-yl)-N-(3-methylthieno[3,2-c]pyridin-4-yl)-N-(piperidin-3-yl)benzamide]
5 | 52 | NC(=O)c1ccc(-c2cc3c(N(C(=O)c4ccc(-n5nnc6cccnc65)cc4F)[C@@H]4CCCNC4)nccc3s2)cc1 [Example 448, N-[2-(4-carbamoylphenyl)thieno[3,2-c]pyridin-4-yl]-2-fluoro-N-[(3R)-3-piperidyl]-4-(triazolo[4,5-b]pyridin-3-yl)benzamide]
6 | 130 | COc1cc(C)c2c(N(C(=O)c3ccc(-c4nc(C)no4)cc3)[C@@H]3CCCNC3)nccc2c1 [Example 914, N-(6-methoxy-8-methyl-1-isoquinolyl)-4-(3-methyl-1,2,4-oxadiazol-5-yl)-N-[(3R)-3-piperidyl] benzamide]
7 | 190 | COCC#Cc1ccnc(Nc2ccc(C(=O)N(c3nccc4cccc(C)c34)[C@@H]3CCCNC3)c(F)c2)n1 [Example 751, (R)-2-fluoro-4-((4-(3-methoxyprop-1-yn-1-yl)pyrimidin-2-yl)amino)-N-(8-methylisoquinolin-1-yl)-N-(piperidin-3-yl)benzamide]
8 | 69 | Cc1ccc(F)c2ccnc(N(C(=O)c3ccc(-c4cn(C)nn4)cc3F)[C@@H]3CCCNC3)c12 [Example 761, (R)-2-fluoro-N-(5-fluoro-8-methylisoquinolin-1-yl)-4-(1-methyl-1H-1,2,3-triazol-4-yl)-N-(piperidin-3-yl)benzamide]
9 | 340 | CN1CCN(c2ccnc(Nc3ccc(C(=O)N(c4nccc5cc(F)ccc45)[C@@H]4CCCNC4)c(F)c3)n2)CC1 [Example 562, (R)-2-fluoro-N-(6-fluoroisoquinolin-1-yl)-4-((4-(4-methylpiperazin-1-yl)pyrimidin-2-yl)amino)-N-(piperidin-3-yl)benzamide]
10 | 33 | CCCNc1ccnc(Nc2ccc(C(=O)N(c3nccc4cccc(C)c34)[C@@H]3CCCNC3)c(F)c2)n1 [Example 746, (R)-2-fluoro-N-(8-methylisoquinolin-1-yl)-N-(piperidin-3-yl)-4-((4-(propylamino)pyrimidin-2-yl)amino)benzamide]
11 | 86 | Cc1nnc(-c2ccc(C(=O)N(c3nccc4cc(Cl)cc(C)c34)[C@@H]3CCCNC3)c(F)c2)o1 [Example 765, (R)—N-(6-chloro-8-methylisoquinolin-1-yl)-2-fluoro-4-(5-methyl-1,3,4-oxadiazol-2-yl)-N-(piperidin-3-yl)benzamide]
12 | 220 | Cc1cccc2ccnc(N(C(=O)c3ccc(Nc4nccc(CCO)n4)cc3F)[C@@H]3CCCNC3)c12 [Example 736, (R)-2-fluoro-4-((4-(2-hydroxyethyl)pyrimidin-2-yl)amino)-N-(8-methylisoquinolin-1-yl)-N-(piperidin-3-yl)benzamide]
13 | 170 | Cc1csc2ccnc(N(C(=O)c3ccc(-c4cn(C)nn4)cc3Cl)[C@@H]3CCCNC3)c12 [Example 758, (R)-2-chloro-4-(1-methyl-1H-1,2,3-triazol-4-yl)-N-(3-methylthieno[3,2-c]pyridin-4-yl)-N-(piperidin-3-yl)benzamide]
14 | 2100 | Cn1cc(-c2ccc(C(=O)N(c3nccc4sc(-c5ccc(C(O)(C(F)(F)F)C(F)(F)F)cc5)cc34)[C@@H]3CCCNC3)c(F)c2)nn1 [Example 604, (R)-2-fluoro-N-(2-(4-(1,1,1,3,3,3-hexafluoro-2-hydroxypropan-2-yl)phenyl)thieno[3,2-c]pyridin-4-yl)-4-(1-methyl-1H-1,2,3-triazol-4-yl)-N-(piperidin-3-yl)benzamide]
15 | 4.2 | Cc1cc(F)cc2ccnc(N(C(=O)c3ccc(-n4nnc5cccnc54)cc3F)[C@@H]3CCCNC3)c12 [Example 583, (R)-4-(3H-[1,2,3]triazolo[4,5-b]pyridin-3-yl)-2-fluoro-N-(6-fluoro-8-methylisoquinolin-1-yl)-N-(piperidin-3-yl)benzamide]
16 | 213 | Cc1cccc2ccnc(N(C(=O)c3ccc(Nc4nccc(CN5CCC(F)(F)CC5)n4)cc3)[C@@H]3CCCNC3)c12 [Example 972, (R)-4-((4-((4,4-difluoropiperidin-1-yl)methyl)pyrimidin-2-yl)amino)-N-(8-methylisoquinolin-1-yl)-N-(piperidin-3-yl)benzamide]
17 | 180 | C=Cc1csc2ccnc(N(C(=O)c3ccc(-c4nnc(C)s4)cc3F)[C@@H]3CCCNC3)c12 [Example 886, 2-fluoro-4-(5-methyl-1,3,4-thiadiazol-2-yl)-N-[(3R)-3-piperidyl]-N-(3-vinylthieno[3,2-c]pyridin-4-yl)benzamide]
18 | 170 | CCc1nnc(-c2ccc(C(=O)N(c3nccc4scc(C)c34)[C@@H]3CCCNC3)c(F)c2)o1 [Example 649, (R)-4-(5-ethyl-1,3,4-oxadiazol-2-yl)-2-fluoro-N-(3-methylthieno[3,2-c]pyridin-4-yl)-N-(piperidin-3-yl)benzamide]
19 | 180 | O=C(c1ccc(-n2nnc3cccnc32)cc1F)N(c1nccc2sc(-c3cscn3)cc12)[C@@H]1CCCNC1 [Example 416, 2-fluoro-N-[(3R)-3-piperidyl]-N-(2-thiazol-4-ylthieno[3,2-c]pyridin-4-yl)-4-(triazolo[4,5-b]pyridin-3-yl)benzamide]
20 | 97 | COCCc1nnc(-c2ccc(C(=O)N(c3nccc4cccc(C)c34)[C@@H]3CCCNC3)cn2)s1 [Example 910, (R)-6-(5-(2-methoxyethyl)-1,3,4-thiadiazol-2-yl)-N-(8-methylisoquinolin-1-yl)-N-(piperidin-3-yl)nicotinamide]
21 | 190 | Cc1noc(-c2ccc(C(=O)N(c3nccc4cc(Cl)cc(C)c34)[C@@H]3CCCNC3)cc2)n1 [Example 773, (R)—N-(6-chloro-8-methylisoquinolin-1-yl)-4-(3-methyl-1,2,4-oxadiazol-5-yl)-N-(piperidin-3-yl)benzamide]
22 | 5400 | Cn1cc(-c2ccc(C(=O)N(c3nccc4cc(/C=C/C(N)=O)ccc34)[C@@H]3CCCNC3)c(F)c2)nn1 [Example 496, (R,E)-N-(6-(3-amino-3-oxoprop-1-en-1-yl)isoquinolin-1-yl)-2-fluoro-4-(1-methyl-1H-1,2,3-triazol-4-yl)-N-(piperidin-3-yl)benzamide]
23 | 70 | CCc1nnc(-c2ccc(C(=O)N(c3nccc4cccc(C)c34)[C@@H]3CCCNC3)cn2)s1 [Example 900, 6-(5-ethyl-1,3,4-thiadiazol-2-yl)-N-(8-methyl-1-isoquinolyl)-N-[(3R)-3-piperidyl] pyridine-3-carboxamide]
24 | 160 | Cc1csc2ccnc(N(C(=O)c3ccc(-c4nnc(CCC#N)s4)cc3F)[C@@H]3CCCNC3)c12 [Example 883, 4-[5-(2-cyanoethyl)-1,3,4-thiadiazol-2-yl]-2-fluoro-N-(3-methylthieno[3,2-c]pyridin-4-yl)-N-[(3R)-3-piperidyl]benzamide]
25 | 200 | Cc1cc(Cl)cc2ccnc(N(C(=O)c3ccc(Nc4ncccn4)cc3F)[C@@H]3CCCNC3)c12 [Example 793, N-(6-chloro-8-methyl-1-isoquinolyl)-2-fluoro-N-[(3R)-3-piperidyl]-4-(pyrimidin-2-ylamino)benzamide]
26 | 390 | CN(C)c1nccc(-c2cc3c(N(C(=O)c4ccc(-n5nnc6cccnc65)cc4F)[C@@H]4CCCNC4)nccc3s2)n1 [Example 458, N-[2-[2-(dimethylamino)pyrimidin-4-yl]thieno[3,2-c]pyridin-4-yl]-2-fluoro-N-[(3R)-3-piperidyl]-4-(triazolo[4,5-b]pyridin-3-yl)benzamide]
27 | 120 | Cc1nnc(-c2ccc(C(=O)N(c3nccc4c(Cl)ccc(C)c34)[C@@H]3CCCNC3)cn2)s1 [Example 898, N-(5-chloro-8-methyl-1-isoquinolyl)-6-(5-methyl-1,3,4-thiadiazol-2-yl)-N-[(3R)-3-piperidyl] pyridine-3-carboxamide]
28 | 24 | Cc1cccc2ccnc(N(C(=O)c3ccc(Nc4nccc(N5CCC(C)(O)CC5)n4)cc3F)[C@@H]3CCCNC3)c12 [Example 936, (R)-2-fluoro-4-(4-(4-hydroxy-4-methylpiperidin-1-yl)pyrimidin-2-ylamino)-N-(8-methylisoquinolin-1-yl)-N-(piperidin-3-yl)benzamide]
29 | 28 | Cc1cccc2ccnc(N(C(=O)c3ccc(-n4nnc5cccnc54)cc3Cl)[C@@H]3CCCNC3)c12 [Example 310, (R)-4-(3H-[1,2,3]triazolo[4,5-b]pyridin-3-yl)-2-chloro-N-(8-methylisoquinolin-1-yl)-N-(piperidin-3-yl) benzamide]
30 | 30 | Cc1cccc2ccnc(N(C(=O)c3ccc(Nc4nccc(N5CCC(O)CC5)n4)cc3F)[C@@H]3CCCNC3)c12 [Example 717, (R)-2-fluoro-4-((4-(4-hydroxypiperidin-1-yl)pyrimidin-2-yl)amino)-N-(8-methylisoquinolin-1-yl)-N-(piperidin-3-yl)benzamide]

From US20240400555A1 (Initial Therapeutics, Inc., priority 2023, published 2024)
